Here are results for 5 molecules from patent US20250161236A1, “THYMOQUINONE AND BLACK SEED COMPOSITIONS FOR TREATING NEUROENDOCRINE CANCER IN COMBINATION WITH IMMUNOTHERAPY” (Novatek Pharmaceuticals, Inc., priority 2023, published 2025).

For one test, the system named is breast cancer cells. The following applies: cited from earlier work.
Another test relates to QGP-1 cells. Briefly: Cell viability (MTT) assay, QGP-1 cells. It counts as cell-based, human. The following applies: 72 hrs. How it is done:
(§1) TQ activity was evaluated in two human pancreatic neuroendocrine tumor (pNEN) cell lines: (1) BON-1 cells, established from a lymph node metastasis of a pNET (Evers et al. 1991, Gastroenterology. 101, 303-311); and (2) QGP-1 cells, established from primary somatostatin producing pNET (Kaku et al. 1980, Gan. 71, 596-601). […] See Vandamme et al. 2015, J. Mol. Endocrinol. 54, 137-147.
(§2) About 5000 Bon-1 or 5000 QGP-1 cells were grown in 96-well plates overnight. On the following day, the cells were exposed to the indicated concentrations of TQ for 72 hrs. At the end of the treatment period, a standard MTT assay was performed to measure cell proliferation and conversely, in the presence of TQ, the reduction in cell viability The values represent 6 replicates per dose from three independent experiments.

In test [1] the test system is pancreatic ductal adenocarcinoma tumor models. Briefly: TQ inhibitory action in pancreatic ductal adenocarcinoma tumor models. In kind it is cell-based.
For test [2], the system named is BON-1 cells. Briefly: Cell viability (MTT) assay, BON-1 cells. The following applies: 72 hrs. In kind it is cell-based, human. The method, then: as §1, §2
For the next test, the system named is Bon-1 (or QGP-1) cells. The test can be described thus: Colony formation assay. It counts as cell-based, human. The following applies: 2.5 uM or 12.5 uM TQ 72 hrs, then 12 days drug free; p<0.01. The method, then:
About 500 Bon-1 (or QGP-1) cells were seeded in 6-well plates in triplicate and allowed to attach overnight. On the following day, cells were treated with 2.5 uM or 12.5 uM TQ (or control) for 72 hrs. After treatment, cells were replenished with drug free media for 12 days and subjected to 0.5% crystal violet staining. Bar diagrams (FIG. 1B) show the number of colonies at the indicated TQ concentration.

Test [3] relates to BON-1 cells. The test can be described thus: Annexin V FITC apoptosis analysis. In kind it is cell-based, human. The following applies: 3 uM or 6 uM TQ, 72 h. The method, then: (§3) About 30,000 BON-1 cells were grown in triplicate in 6 well plates overnight. The next day cells were exposed to 3 uM or 6 uM TQ (or control) for 72 h followed by Annexin V FITC apoptosis analysis. See, e.g., Demchenko 2012, Exp. Oncol. 34, 263-268. In addition, BON-1 cells grown and treated under similar experimental conditions were evaluated by Western blotting for the presence of cleaved PARP-a marker of apoptosis. See, e.g., Chaitanya et al. 2010, Cell Comm. Signal. 8, 31.

The subject of test [4] is PARP cleavage in BON-1 cells. Briefly: Western blotting for cleaved PARP. It counts as cell-based, human. The following applies: 3 uM or 6 uM TQ, 72 h. The method, then: as §3
In general terms: A western blot detects proteins with antibodies after separation by electrophoresis.

The subject of test [5] is patients with refractory poorly differentiated NEC. The following applies: cited from earlier work.
Test [6] deals with patients with refractory high grade (G3) NENs. The following applies: cited from earlier work.
For another test, the system named is refractory NEC patients. The following applies: high-grade NEC group of 21 patients; cited from earlier work.

Regarding `CCCCCCCCCOc1c(CCCC(=O)O)cc(-c2ccc(C(=O)O)cc2)cc1CCCC(=O)O` [CNBDA], in the test with breast cancer cells, the “inhibitory effects against breast cancer cells” value is listed as “significant inhibitory effects”.

For the molecule `CC1=CC(=O)C(C(C)C)=CC1=O` [TQ, Thymoquinone], the “IC50 (cell viability)” value with QGP-1 cells and in the test with BON-1 cells [2] was “low uM range” in each case. Besides, the IC50 result in test [1] is “high uM range”. In addition, in the test with Bon-1 (or QGP-1) cells, the “long term growth in colony formation assay” value is on record as “suppressed long term growth”. The “apoptosis (Annexin V-FITC staining, flow cytometry)” value with BON-1 cells [3] is “induced significant apoptosis”. Further, the “PARP cleavage product (western blot)” value in [4] is recorded as “dose dependent accumulation of the PARP cleavage product”.

As for nivolumab: anti-PD-1 antibody, the ORR in test [5] (at 8 weeks) is given as 7.2%. For the same molecule, in test [5], the OS is given as 7.2 months and the PFS is 1.8 months.

As for pembrolizumab: anti-PD1 antibody, the “objective response rate (ORR)” value in test [6] is on record as 5%.

B1: spartalizumab: single agent ICPI in a phase II study in refractory NEC (antibody, chains of the INN, looked up, V domains shown)
VH: EVQLVQSGAEVKKPGESLRISCKGSGYTFTTYWMHWVRQATGQGLEWMGNIYPGTGGSNFDEKFKNRVTITADKSTSTAYMELSSLRSEDTAVYYCTRWTTGTGAYWGQGTTVTVSS
VL: EIVLTQSPATLSLSPGERATLSCKSSQSLLDSGNQKNFLTWYQQKPGQAPRLLIYWASTRESGVPSRFSGSGSGTDFTFTISSLEAEDAATYYCQNDYSYPYTFGQGTKVEIK
For B1, in the test with refractory NEC patients, the ORR is 4.8%, the OS was 6.8 months and the PFS is 1.8 months.
